Columns and labels:
[1] = biological target: T1, Cow milk Xanthine Oxidase (Bos taurus, UniProt P80457); experiment: Xanthine oxidase inhibiting action, in vitro test (oxidation of xanthine, absorbance OD 290); format: biochemical; details: Cow milk xanthine oxidase (Roche), xanthine substrate, 50 mM phosphate buffer pH 7.5, 37° C., 15 min
T1 construct: Cow milk Xanthine Oxidase (Roche); purchased Roche; host or cells: cow milk
Method: Pharmacological Experiment 1 (In Vitro Test)
1. Preparation of Test Sample
250 gL of each of the solutions of the test compound having different concentrations was added to 1 mL of a solution of Xanthine (SIGMA, 300 µM) in the 50 mM phosphor buffer (pH 7.5). The mixture was then pre-incubated at 37° C. for 10 min. Subsequently, to the pre-incubated mixture was added […] of Cow milk Xanthine Oxidase (Roche) diluted with the 50 mM phosphate buffer (pH 7.5) to give a solution of 30 mU concentration. The mixture was then kept at 37° C. for 15 min for performing a reaction. The reaction was terminated by addition of 1N hydrochloric acid. Subsequently, the absorbance ([…]) was measured by means of a spectrophotometer (HITACHI U-2000), to obtain the inhibition ratio.
The inhibition ratio was calculated according to the following formula: Inhibition ratio(%)=[1−(B−C)/(A−C)]×100
B: absorbance measured in the case of using test compound

xanthine oxidase = biological target: T2, xanthine oxidase (Mus musculus, UniProt Q00519); experiment: In vivo test: uric acid value in plasma of mouse after oral administration; details: ICR mouse, 3 mg/10 mL/kg single oral administration, blood collected after one hour
T2 construct: ICR mouse (Japan Charles River Co., Ltd., 6 W) was employed as test animal; from tissue; host or cells: living ICR mouse (whole animal; plasma uric acid measured)
Excerpt: The xanthine oxidase inhibiting action was further confirmed in vivo tests by measuring the uric acid concentration in a plasma obtained from mouse into which the compound of the invention had been orally administered. See Example 1-B, Table 21.
Pharmacological Experiment 2 (In Vivo Test)
1. Test Animals, and Grouping
ICR mouse (Japan Charles River Co., Ltd., 6 W) was employed as test animal. One group comprised mice, and a vehicle control group was set for each experiment.
2. Preparation and Administration of the Test Compound
The test compound was suspended in aqueous […] methylcellulose solution to for administration.
Dosage is 3 mg/10 mL/kg for each of the control groups and all test groups. The administration was made by single oral administration.
3. Procedure of Experiment
The test compound was orally administered once, and the whole blood was collected from main artery in the presence of heparin after one hour. From the collected whole blood was separated plasma in the conventional manner, and the plasma was subjected to measurement of uric acid value by the enzyme method by means of an automatic analytical apparatus (HITACHI 7060E).
The inhibition ratio was calculated according to the following formula: Inhibition ratio(%)=[…]
A: average uric acid value in plasma of the group into which the test compound was administered.
B: average uric acid value in plasma of the vehicle control group

T1 sequence (P80457 whole entry): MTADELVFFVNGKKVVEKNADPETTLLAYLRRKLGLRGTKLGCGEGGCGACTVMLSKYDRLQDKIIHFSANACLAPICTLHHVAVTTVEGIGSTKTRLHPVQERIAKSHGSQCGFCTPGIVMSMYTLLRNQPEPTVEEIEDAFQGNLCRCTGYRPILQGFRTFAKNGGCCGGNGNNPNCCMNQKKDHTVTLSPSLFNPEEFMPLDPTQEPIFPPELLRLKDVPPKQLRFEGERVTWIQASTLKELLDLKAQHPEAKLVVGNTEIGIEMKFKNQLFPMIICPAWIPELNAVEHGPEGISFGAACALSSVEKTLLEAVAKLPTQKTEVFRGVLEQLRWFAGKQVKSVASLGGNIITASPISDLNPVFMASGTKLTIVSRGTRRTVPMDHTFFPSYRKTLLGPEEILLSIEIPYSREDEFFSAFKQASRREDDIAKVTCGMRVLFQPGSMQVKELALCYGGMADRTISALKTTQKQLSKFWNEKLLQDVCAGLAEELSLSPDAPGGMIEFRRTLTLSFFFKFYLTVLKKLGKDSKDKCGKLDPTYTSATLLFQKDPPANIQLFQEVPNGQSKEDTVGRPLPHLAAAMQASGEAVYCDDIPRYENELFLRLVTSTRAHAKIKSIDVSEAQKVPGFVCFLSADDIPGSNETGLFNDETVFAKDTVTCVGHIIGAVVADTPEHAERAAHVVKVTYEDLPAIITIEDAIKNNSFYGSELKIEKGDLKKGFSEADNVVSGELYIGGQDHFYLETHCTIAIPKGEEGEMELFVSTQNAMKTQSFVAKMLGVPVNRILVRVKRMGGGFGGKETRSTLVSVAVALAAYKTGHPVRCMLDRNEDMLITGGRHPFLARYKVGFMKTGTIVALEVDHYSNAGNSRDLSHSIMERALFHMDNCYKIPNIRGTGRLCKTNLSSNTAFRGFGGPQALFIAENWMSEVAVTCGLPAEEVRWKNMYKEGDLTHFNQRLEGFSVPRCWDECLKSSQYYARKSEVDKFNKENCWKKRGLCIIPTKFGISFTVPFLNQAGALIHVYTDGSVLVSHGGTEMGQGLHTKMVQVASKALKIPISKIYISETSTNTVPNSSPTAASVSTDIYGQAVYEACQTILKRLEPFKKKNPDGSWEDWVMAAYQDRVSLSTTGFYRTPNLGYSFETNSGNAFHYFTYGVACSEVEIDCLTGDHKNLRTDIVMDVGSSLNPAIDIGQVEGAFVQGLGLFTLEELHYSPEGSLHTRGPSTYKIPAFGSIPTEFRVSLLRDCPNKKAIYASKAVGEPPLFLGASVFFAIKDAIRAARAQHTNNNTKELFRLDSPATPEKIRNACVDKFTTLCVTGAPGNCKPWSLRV
T2 sequence (Q00519 whole entry): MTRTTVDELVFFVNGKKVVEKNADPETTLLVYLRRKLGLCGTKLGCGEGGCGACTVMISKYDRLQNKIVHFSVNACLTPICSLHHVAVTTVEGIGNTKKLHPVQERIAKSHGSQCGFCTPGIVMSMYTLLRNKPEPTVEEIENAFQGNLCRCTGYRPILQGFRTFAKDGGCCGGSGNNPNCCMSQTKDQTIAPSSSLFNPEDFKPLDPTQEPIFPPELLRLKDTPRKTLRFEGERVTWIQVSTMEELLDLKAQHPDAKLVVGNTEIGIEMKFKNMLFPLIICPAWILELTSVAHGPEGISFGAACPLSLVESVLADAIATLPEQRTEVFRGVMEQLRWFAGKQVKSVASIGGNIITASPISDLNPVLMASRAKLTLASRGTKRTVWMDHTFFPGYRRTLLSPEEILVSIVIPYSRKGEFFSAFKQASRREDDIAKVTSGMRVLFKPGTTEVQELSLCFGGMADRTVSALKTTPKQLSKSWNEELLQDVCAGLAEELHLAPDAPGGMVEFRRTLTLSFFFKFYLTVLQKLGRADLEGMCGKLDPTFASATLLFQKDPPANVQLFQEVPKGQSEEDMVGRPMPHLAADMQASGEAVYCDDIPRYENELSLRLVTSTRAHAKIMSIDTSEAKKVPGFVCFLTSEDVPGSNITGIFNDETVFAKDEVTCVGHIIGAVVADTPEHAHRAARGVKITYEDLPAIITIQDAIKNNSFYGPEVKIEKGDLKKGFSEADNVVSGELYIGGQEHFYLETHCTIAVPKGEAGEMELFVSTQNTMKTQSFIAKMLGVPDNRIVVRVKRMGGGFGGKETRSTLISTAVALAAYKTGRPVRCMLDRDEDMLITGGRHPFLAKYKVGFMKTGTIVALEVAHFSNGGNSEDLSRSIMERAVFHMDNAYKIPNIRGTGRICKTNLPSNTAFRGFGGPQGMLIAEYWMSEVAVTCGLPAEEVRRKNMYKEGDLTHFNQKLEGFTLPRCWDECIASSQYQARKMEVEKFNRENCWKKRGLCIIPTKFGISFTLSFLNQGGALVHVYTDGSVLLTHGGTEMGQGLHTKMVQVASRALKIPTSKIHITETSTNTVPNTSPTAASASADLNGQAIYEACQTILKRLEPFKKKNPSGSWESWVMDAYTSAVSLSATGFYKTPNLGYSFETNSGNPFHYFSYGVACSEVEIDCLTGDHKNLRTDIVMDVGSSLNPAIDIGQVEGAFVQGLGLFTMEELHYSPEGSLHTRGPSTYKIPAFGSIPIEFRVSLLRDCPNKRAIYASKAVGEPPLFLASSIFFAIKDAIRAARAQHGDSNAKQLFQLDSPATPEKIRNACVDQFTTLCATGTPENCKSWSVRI

SMILES | IC50 [1] [nM] | Inhibition ratio (plasma uric acid value vs vehicle control group) (xanthine oxidase) [%]
CC(C)COc1ccc(-c2nc3ncnc(Cl)c3[nH]2)cc1[N+](=O)[O-] [Example 1-A, 8-(4-Isobutoxy-3-nitrophenyl)-6-chloropurine] | 63.2 | 
CC(C)COc1ccc(-c2nc3c(N)ncnc3o2)cc1[N+](=O)[O-] [Example 1-B, 6-amino-8-(4-isobutoxy-3-nitrophenyl)oxazolo[4,5-d]pyrimidine] | 44.8 | 60.7
CC(C)COc1ccc(-c2nc3ncnc(O)c3[nH]2)cc1[N+](=O)[O-] [Example 2, 8-(4-Isobutoxy-3-nitrophenyl)-6-hydroxypurine] | 11.1 | 
CC(C)COc1ccc(-c2nc3ncnc(N)c3[nH]2)cc1[N+](=O)[O-] [Example 6, 6-Amino-8-(4-isobutoxy-3-nitrophenyl)purine] | 75.9 | 63.8
CC(C)COc1ccc(-c2nc3c(O)cccc3[nH]2)cc1[N+](=O)[O-] [Example 7, 4-Hydroxy-2-(4-isobutoxy-3-nitrophenyl)-1H-benzimidazole] | 102 | 
CC(C)COc1ccc(-c2nc3cccc(C(=O)O)c3o2)cc1[N+](=O)[O-] [Example 8, 2-(4-Isobutoxy-3-nitrophenyl)benzoxazole-7carboxylic acid] | 18.6 | 56.8
CC(C)COc1ccc(-c2nc3ccncc3[nH]2)cc1[N+](=O)[O-] [Example 9, 2-(4-Isobutoxy-3-nitrophenyl)-3H-imidazo[4,5-c]pyridine] | 58.4 | 
CC(C)COc1ccc(-c2nc3cccc(C(=O)O)c3s2)cc1C#N [Example 10, 2-(3-Cyano-4-isobutyloxyphenyl)-1,3-benzothiazole-7-carboxylic acid] | 50 | 56.1
CC(C)COc1ccc(-c2nc3c(C(=O)O)cccc3[nH]2)cc1C#N [Example 11, 2-(3-Cyano-4-isobutyloxyphenyl)benzimidazole-7-carboxylic acid] | 22.3 | 51.4
CC(C)COc1ccc(-c2nc3cccc(O)c3s2)cc1C#N [Example 12, 2-(3-Cyano-4-isobutyloxyphenyl)-7-hydroxy 1,3-benzothiazole] | 161 | 

From patent publication US7253154B2, “Substituted thiazolopyrimidines as xanthine oxidase inhibitors” (Nippon Chemiphar Co., Ltd., priority 2001, dated 2007)
